Values joined by “and” are separate entries in the source; they are usually repeats but may differ in a detail not shown here. Equal values may be shown once.
What was measured:
RXR = assay: [11,12-3H(N)] 9-cis retinoic acid binding competition assay (RXR ligand binding), rat liver nuclear extracts; settings: 39.94 nM compound, 0.66 nM radioligand
Description: 8), 50 mM NaCl, 0.1 mM EDTA, 1 mM DTT, 1 mM PMSF, and 1% DMSO. The substrate is 3H-CoA (acetyl coenzyme A) and the incubation time is for 1 h at 30° C. The radioactivity in mixture is detected on washed filter paper using a scintillation counter. The Histone Deacetylase (HDAC) fluorescent activity assay (HDAC1-3) is based on the using 2X purified human enzyme mixed with the reaction buffer (50 mM Tris-HCl pH 8, 137 mM NaCl, 2.7 mM KCl, and 1 mM MgCl2, 1 mg/mL fresh BSA and 1% fresh DMSO) and then compounds (in 100% DMSO) are titrated in using Acoustic Technology.
The 2X HDAC substrate is a fluorogenic acetylated peptide from p53 (residues 379 - 38 2 RHKK(Ac)AMC) which is mixed in with the enzyme-compound complex and incubated for 1-2 h at 30 °C. In the development step, a proprietary developer with trichostatin A (or TMP269) is added to stop the reaction and to generate fluorescent color which is read using an EnVision Multilabel Plate Reader (Perkin Elmer) (Ex 360 nm/ Em 460 nm). For all enzyme activity assays, the percentage of enzyme activity (relative to DMSO controls) and IC50 values were calculated using GraphPad Prism 4 program (sigmoidal dose response equations).
Isolation of cell nuclei. Rat liver nuclear fraction was prepared from rat livers by the procedure established and optimized previously 19. […]

PKAC-beta = PKAC-beta (Homo sapiens, UniProt P22694); assay: KINOMEscan select kinase screen; assay type: binding; settings: two experiments
Description: (§1) Kinase Assays. The kinase inhibition assays were conducted by DiscoverX on a platform assay by Ambit BioSciences as described previously 16,17. FKK6 was screened at a single concentration of 10 […]
(§2) The assays measure a compound’s ability to inhibit binding of a canonical ligand substrate, with 0% activity of control corresponding to full inhibition and 100% activity of control to no inhibition. […]

PKAC-alpha = PKAC-alpha (Homo sapiens, UniProt P17612); assay: KINOMEscan select kinase screen; assay type: binding; settings: two experiments
Description: as §1, §2

JNK1 = JNK1 (Homo sapiens, UniProt P45983); assay: KINOMEscan select kinase screen; assay type: binding; settings: two experiments
Sequence of JNK1 (P45983 whole entry): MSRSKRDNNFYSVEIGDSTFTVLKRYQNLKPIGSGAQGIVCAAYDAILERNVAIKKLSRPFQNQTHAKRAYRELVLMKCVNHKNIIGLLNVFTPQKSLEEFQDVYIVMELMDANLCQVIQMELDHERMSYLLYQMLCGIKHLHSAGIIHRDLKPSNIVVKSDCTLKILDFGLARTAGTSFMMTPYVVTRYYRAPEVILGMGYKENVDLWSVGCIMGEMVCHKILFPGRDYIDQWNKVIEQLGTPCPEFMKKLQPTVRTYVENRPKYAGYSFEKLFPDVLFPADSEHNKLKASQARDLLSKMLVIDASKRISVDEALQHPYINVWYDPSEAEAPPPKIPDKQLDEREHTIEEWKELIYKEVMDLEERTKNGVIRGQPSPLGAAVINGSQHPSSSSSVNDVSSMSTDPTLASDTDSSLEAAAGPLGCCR
Description: (§3) Kinase Assays. The kinase inhibition assays were conducted by DiscoverX on a platform assay by Ambit BioSciences as described previously 16,17. FKK6 was screened at a single concentration of 10 μM in duplicate. The scanMAXSM assay panel measures 468 kinases
as §2, with “(https://www.discoverx.com/services/drug-discovery-development-services/kinase-profiling/kinomescan/scanmax). The” for “The”

S6K1 = S6K1 (Homo sapiens, UniProt P23443); assay: KINOMEscan select kinase screen; assay type: binding; settings: two experiments
Sequence of S6K1 (P23443 whole entry): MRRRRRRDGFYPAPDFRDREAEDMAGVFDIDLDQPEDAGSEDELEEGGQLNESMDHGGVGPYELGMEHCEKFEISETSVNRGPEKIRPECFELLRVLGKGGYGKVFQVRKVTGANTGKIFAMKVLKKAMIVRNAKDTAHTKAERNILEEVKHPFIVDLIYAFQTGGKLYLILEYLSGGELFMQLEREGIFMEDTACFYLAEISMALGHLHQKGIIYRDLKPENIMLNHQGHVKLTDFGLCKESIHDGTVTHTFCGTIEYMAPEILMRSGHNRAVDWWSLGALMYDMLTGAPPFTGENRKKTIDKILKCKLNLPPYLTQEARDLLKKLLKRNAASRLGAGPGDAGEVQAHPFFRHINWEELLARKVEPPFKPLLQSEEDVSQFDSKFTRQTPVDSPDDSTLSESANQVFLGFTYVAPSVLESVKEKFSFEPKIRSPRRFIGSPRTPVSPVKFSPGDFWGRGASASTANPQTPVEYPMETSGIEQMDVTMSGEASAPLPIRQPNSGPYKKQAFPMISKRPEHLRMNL
Description: as §3
as §2, with “(https://www.discoverx.com/services/drug-discovery-development-services/kinase-profiling/kinomescan/scanmax). The” for “The”

JNK2 = JNK2 (Homo sapiens, UniProt P45984); assay: KINOMEscan select kinase screen; assay type: binding; settings: two experiments
Sequence of JNK2 (P45984 whole entry): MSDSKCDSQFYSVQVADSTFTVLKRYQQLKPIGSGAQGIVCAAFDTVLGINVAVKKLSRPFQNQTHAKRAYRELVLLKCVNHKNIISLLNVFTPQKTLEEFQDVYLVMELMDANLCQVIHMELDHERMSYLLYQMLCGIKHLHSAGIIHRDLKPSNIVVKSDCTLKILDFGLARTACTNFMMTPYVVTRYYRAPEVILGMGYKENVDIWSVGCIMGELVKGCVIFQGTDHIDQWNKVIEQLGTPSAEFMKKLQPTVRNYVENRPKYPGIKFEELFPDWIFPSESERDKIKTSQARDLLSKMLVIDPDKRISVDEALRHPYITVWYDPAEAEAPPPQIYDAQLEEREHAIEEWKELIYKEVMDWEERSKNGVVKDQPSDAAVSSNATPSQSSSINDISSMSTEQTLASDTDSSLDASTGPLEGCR
Description: as §3
as §2, with “(https://www.discoverx.com/services/drug-discovery-development-services/kinase-profiling/kinomescan/scanmax). The” for “The”

| Compound | displacement of [3H]-9-cis-retinoic acid (RXR) | %Ctrl (PKAC-beta; 10000 nM, 10 µM) | %Ctrl (PKAC-beta; 25000 nM, 25 µM) | remaining binding at 10 µM (PKAC-alpha; 10000 nM, read-out: %Ctrl) | %Ctrl (PKAC-alpha; 25000 nM, 25 µM) | remaining binding at 25 µM (PKAC-alpha; 25000 nM, read-out: %Ctrl) | %Ctrl (JNK1; 10000 nM, 10 µM) | remaining binding at 10 µM (JNK1; 10000 nM, read-out: %Ctrl) | %Ctrl (JNK1; 25000 nM, 25 µM) | remaining binding at 25 µM (JNK1; 25000 nM, read-out: %Ctrl) | %Ctrl (S6K1; 10000 nM, 10 µM) | %Ctrl (S6K1; 25000 nM, 25 µM) | remaining binding at 25 µM (S6K1; 25000 nM, read-out: %Ctrl) | %Ctrl (JNK2; 10000 nM, 10 µM) | remaining binding at 10 µM (JNK2; 10000 nM, read-out: %Ctrl) | %Ctrl (JNK2; 25000 nM, 25 µM) | remaining binding at 25 µM (JNK2; 25000 nM, read-out: %Ctrl) |
| --- | --- | --- | --- | --- | --- | --- | --- | --- | --- | --- | --- | --- | --- | --- | --- | --- | --- |
| O=S(=O)(c1ccccc1)n1c(C(O)c2ccncc2)cc2ccccc21 (racemic) [FKK1] | significant displacement |  |  |  |  |  |  |  |  |  |  |  |  |  |  |  |  |
| O=C(c1ccncc1)c1cc2ccccc2n1S(=O)(=O)c1ccccc1 [FKK5, (1-(phenylsulfonyl)-1H-indol-2-yl)(pyridin-4-yl)methanone] |  | 100 %Ctrl and 57 %Ctrl | 92 %Ctrl and 48 %Ctrl | 100% | 95 %Ctrl | 85% | 95 %Ctrl | 91% | 85 %Ctrl | 66% | 79 %Ctrl and 100 %Ctrl | 89 %Ctrl | 71% | 88 %Ctrl | 95% | 80 %Ctrl | 74% |

— paper PMC7136958, “Targeting the pregnane X receptor using microbial metabolite mimicry” (EMBO Molecular Medicine, 2020)
